Species: Rattus norvegicus
Assay: DrugMatrix - Regimen: Daily Repeat
Assay type: toxicity, organism-based, Sprague-Dawley
Design: regimen Daily Repeat, gender Male, age 6-8 weeks
Conditions: in vivo, po, route oral GAVAGE, vehicle .5 % CMC; for BASOPHIL / EOSINOPHIL / ERYTHROCYTE COUNT / HEMATOCRIT / HEMOGLOBIN / LEUKOCYTE COUNT / LYMPHOCYTE / MEAN CORPUSCULAR HEMOGLOBIN / MEAN CORPUSCULAR HEMOGLOBIN CONCENTRATION / MEAN CORPUSCULAR VOLUME / MONOCYTE / NEUTROPHIL / PLATELET COUNT: tissue Blood; for ALANINE AMINOTRANSFERASE / ALKALINE PHOSPHATASE / ASPARTATE AMINOTRANSFERASE / BLOOD UREA NITROGEN / CHLORIDE / CHOLESTEROL / CREATINE PHOSPHOKINASE / CREATININE / GLUCOSE / PHOSPHORUS / POTASSIUM / SODIUM / TOTAL BILIRUBIN / TOTAL PROTEIN: tissue Plasma
[1] = 0 mg/kg, 72 h, dose level Control, time 3 day
[2] = 0 mg/kg, 120 h, dose level Control, time 5 day
[3] = 20 mg/kg, 72 h, dose level Low, time 3 day
[4] = 20 mg/kg, 120 h, dose level Low, time 5 day
[5] = 95 mg/kg, 72 h, dose level High, time 3 day
[6] = 95 mg/kg, 120 h, dose level High, time 5 day

## CN1CCN(C2=Nc3cc(Cl)ccc3Nc3ccccc32)CC1 [CLOZAPINE]
[1]
  BASOPHIL: 0%
  EOSINOPHIL: 0.33%
  ERYTHROCYTE COUNT: 6.2 x10E6/uL
  HEMATOCRIT: 38.08%
  HEMOGLOBIN: 14.92 G/DL
  LEUKOCYTE COUNT: 11.13 x10E3/uL
  LYMPHOCYTE: 76%
  MEAN CORPUSCULAR HEMOGLOBIN: 24.1 pg
  MEAN CORPUSCULAR HEMOGLOBIN CONCENTRATION: 39.17 G/DL
  MEAN CORPUSCULAR VOLUME: 61.48 fL
  MONOCYTE: 3.83%
  NEUTROPHIL: 19.83%
  PLATELET COUNT: 1327.5 x10E3/uL
  ALANINE AMINOTRANSFERASE: 40.17 u/L
  ALKALINE PHOSPHATASE: 372 u/L
  ASPARTATE AMINOTRANSFERASE: 67.17 u/L
  BLOOD UREA NITROGEN: 18.83 mg/dL
  CHLORIDE: 105.17 MEQ/L
  CHOLESTEROL: 78.17 mg/dL
  CREATINE PHOSPHOKINASE: 149.17 u/L
  CREATININE: 0.57 mg/dL
  GLUCOSE: 185.17 mg/dL
  PHOSPHORUS: 11.43 mg/dL
  POTASSIUM: 6.78 MEQ/L
  SODIUM: 152.83 MEQ/L
  TOTAL BILIRUBIN: 0.4 mg/dL
  TOTAL PROTEIN: 6.87 G/DL
[2]
  BASOPHIL: 0%
  EOSINOPHIL: 0%
  ERYTHROCYTE COUNT: 6.05 x10E6/uL
  HEMATOCRIT: 36.55%
  HEMOGLOBIN: 14.7 G/DL
  LEUKOCYTE COUNT: 11.8 x10E3/uL
  LYMPHOCYTE: 86.83%
  MEAN CORPUSCULAR HEMOGLOBIN: 24.37 pg
  MEAN CORPUSCULAR HEMOGLOBIN CONCENTRATION: 40.32 G/DL
  MEAN CORPUSCULAR VOLUME: 60.47 fL
  MONOCYTE: 0.83%
  NEUTROPHIL: 12.33%
  PLATELET COUNT: 1177 x10E3/uL
  ALANINE AMINOTRANSFERASE: 41.83 u/L
  ALKALINE PHOSPHATASE: 377.5 u/L
  ASPARTATE AMINOTRANSFERASE: 60.83 u/L
  BLOOD UREA NITROGEN: 16 mg/dL
  CHLORIDE: 105.67 MEQ/L
  CHOLESTEROL: 67.83 mg/dL
  CREATINE PHOSPHOKINASE: 120.33 u/L
  CREATININE: 0.6 mg/dL
  GLUCOSE: 167.67 mg/dL
  PHOSPHORUS: 10.03 mg/dL
  POTASSIUM: 6.68 MEQ/L
  SODIUM: 150.5 MEQ/L
  TOTAL BILIRUBIN: 0.57 mg/dL
  TOTAL PROTEIN: 6.25 G/DL
[3]
  BASOPHIL: 0%
  EOSINOPHIL: 0.5%
  ERYTHROCYTE COUNT: 5.3 x10E6/uL
  HEMATOCRIT: 33.4%
  HEMOGLOBIN: 12.8 G/DL
  LEUKOCYTE COUNT: 10.25 x10E3/uL
  LYMPHOCYTE: 83.5%
  MEAN CORPUSCULAR HEMOGLOBIN: 24.2 pg
  MEAN CORPUSCULAR HEMOGLOBIN CONCENTRATION: 38.35 G/DL
  MEAN CORPUSCULAR VOLUME: 62.95 fL
  MONOCYTE: 0%
  NEUTROPHIL: 16%
  PLATELET COUNT: 1071.5 x10E3/uL
  ALANINE AMINOTRANSFERASE: 33.33 u/L
  ALKALINE PHOSPHATASE: 312 u/L
  ASPARTATE AMINOTRANSFERASE: 54 u/L
  BLOOD UREA NITROGEN: 13.33 mg/dL
  CHLORIDE: 104.33 MEQ/L
  CHOLESTEROL: 84.67 mg/dL
  CREATINE PHOSPHOKINASE: 145.33 u/L
  CREATININE: 0.57 mg/dL
  GLUCOSE: 148.67 mg/dL
  PHOSPHORUS: 11.43 mg/dL
  POTASSIUM: 6.5 MEQ/L
  SODIUM: 149 MEQ/L
  TOTAL BILIRUBIN: 0.3 mg/dL
  TOTAL PROTEIN: 5.9 G/DL
[4]
  BASOPHIL: 0%
  EOSINOPHIL: 0%
  ERYTHROCYTE COUNT: 6.24 x10E6/uL
  HEMATOCRIT: 37.73%
  HEMOGLOBIN: 14.93 G/DL
  LEUKOCYTE COUNT: 15.97 x10E3/uL
  LYMPHOCYTE: 93.67%
  MEAN CORPUSCULAR HEMOGLOBIN: 23.97 pg
  MEAN CORPUSCULAR HEMOGLOBIN CONCENTRATION: 39.57 G/DL
  MEAN CORPUSCULAR VOLUME: 60.57 fL
  MONOCYTE: 1.33%
  NEUTROPHIL: 5%
  PLATELET COUNT: 1152.67 x10E3/uL
  ALANINE AMINOTRANSFERASE: 36.67 u/L
  ALKALINE PHOSPHATASE: 370 u/L
  ASPARTATE AMINOTRANSFERASE: 55.67 u/L
  BLOOD UREA NITROGEN: 13 mg/dL
  CHLORIDE: 106 MEQ/L
  CHOLESTEROL: 72.33 mg/dL
  CREATINE PHOSPHOKINASE: 147.67 u/L
  CREATININE: 0.57 mg/dL
  GLUCOSE: 152.33 mg/dL
  PHOSPHORUS: 11.4 mg/dL
  POTASSIUM: 6.5 MEQ/L
  SODIUM: 149 MEQ/L
  TOTAL BILIRUBIN: 0.3 mg/dL
  TOTAL PROTEIN: 5.87 G/DL
[5]
  BASOPHIL: 0%
  EOSINOPHIL: 0.33%
  ERYTHROCYTE COUNT: 6.22 x10E6/uL
  HEMATOCRIT: 37.83%
  HEMOGLOBIN: 14.53 G/DL
  LEUKOCYTE COUNT: 10.53 x10E3/uL
  LYMPHOCYTE: 81.33%
  MEAN CORPUSCULAR HEMOGLOBIN: 23.4 pg
  MEAN CORPUSCULAR HEMOGLOBIN CONCENTRATION: 38.43 G/DL
  MEAN CORPUSCULAR VOLUME: 60.87 fL
  MONOCYTE: 1%
  NEUTROPHIL: 17.33%
  PLATELET COUNT: 1046 x10E3/uL
  ALANINE AMINOTRANSFERASE: 43.67 u/L
  ALKALINE PHOSPHATASE: 361.33 u/L
  ASPARTATE AMINOTRANSFERASE: 61.67 u/L
  BLOOD UREA NITROGEN: 16.33 mg/dL
  CHLORIDE: 108 MEQ/L
  CHOLESTEROL: 85.33 mg/dL
  CREATINE PHOSPHOKINASE: 131.33 u/L
  CREATININE: 0.57 mg/dL
  GLUCOSE: 153.33 mg/dL
  PHOSPHORUS: 11.9 mg/dL
  POTASSIUM: 7.33 MEQ/L
  SODIUM: 154.33 MEQ/L
  TOTAL BILIRUBIN: 0.27 mg/dL
  TOTAL PROTEIN: 6.13 G/DL
[6]
  BASOPHIL: 0%
  EOSINOPHIL: 0.67%
  ERYTHROCYTE COUNT: 6.78 x10E6/uL
  HEMATOCRIT: 41.33%
  HEMOGLOBIN: 16.27 G/DL
  LEUKOCYTE COUNT: 12.7 x10E3/uL
  LYMPHOCYTE: 89.67%
  MEAN CORPUSCULAR HEMOGLOBIN: 24.13 pg
  MEAN CORPUSCULAR HEMOGLOBIN CONCENTRATION: 39.43 G/DL
  MEAN CORPUSCULAR VOLUME: 61.1 fL
  MONOCYTE: 0.33%
  NEUTROPHIL: 9.33%
  PLATELET COUNT: 1299 x10E3/uL
  ALANINE AMINOTRANSFERASE: 60.33 u/L
  ALKALINE PHOSPHATASE: 306.67 u/L
  ASPARTATE AMINOTRANSFERASE: 59.67 u/L
  BLOOD UREA NITROGEN: 14.67 mg/dL
  CHLORIDE: 107 MEQ/L
  CHOLESTEROL: 96.67 mg/dL
  CREATINE PHOSPHOKINASE: 136 u/L
  CREATININE: 0.5 mg/dL
  GLUCOSE: 158 mg/dL
  PHOSPHORUS: 11.83 mg/dL
  POTASSIUM: 6.7 MEQ/L
  SODIUM: 155.67 MEQ/L
  TOTAL BILIRUBIN: 0.2 mg/dL
  TOTAL PROTEIN: 6.6 G/DL

Reference: ChEMBL document CHEMBL3885881, “DrugMatrix”
